From US20120196853A1, “Novel Quinoline-Hepcidine Antagonists” (VIFOR (INTERNATIONAL) AG, priority 2009, published 2012)
pIC50: −log10 of the molar value.

The molecules below were run against T1, human ferroportin (Fpn-HaloTag fusion protein) (Homo sapiens, UniProt Q9NP59) (assay: ferroportin internalization assay (inhibition of hepcidin-induced internalization of Fpn, MDCK-FPN-HaloTag cells)). Conditions: 100 nM hepcidin, overnight, dilution series 0.04 to 40 μM.
T1 construct: expressed in transfected cells
T1 sequence (Q9NP59 1-571): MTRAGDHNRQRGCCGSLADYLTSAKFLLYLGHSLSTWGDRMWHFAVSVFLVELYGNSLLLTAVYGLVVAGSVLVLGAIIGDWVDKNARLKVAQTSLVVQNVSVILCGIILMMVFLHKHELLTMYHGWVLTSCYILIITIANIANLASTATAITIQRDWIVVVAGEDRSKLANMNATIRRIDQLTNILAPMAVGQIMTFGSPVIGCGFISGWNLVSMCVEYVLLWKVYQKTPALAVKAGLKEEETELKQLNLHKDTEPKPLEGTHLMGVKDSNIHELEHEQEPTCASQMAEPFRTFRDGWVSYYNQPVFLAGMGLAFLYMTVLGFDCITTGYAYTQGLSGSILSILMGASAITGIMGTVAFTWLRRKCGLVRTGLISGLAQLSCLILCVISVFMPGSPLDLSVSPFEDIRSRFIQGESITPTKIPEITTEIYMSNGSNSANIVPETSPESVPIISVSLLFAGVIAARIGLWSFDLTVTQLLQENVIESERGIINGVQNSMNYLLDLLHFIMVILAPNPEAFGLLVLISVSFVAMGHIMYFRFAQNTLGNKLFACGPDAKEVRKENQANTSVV
Format: cell-based
Method: The hepcidin-antagonistic action of the quinoline compounds of the present invention was determined by means of the “ferroportin internalization assay” described in the following.
Organic compounds of low molecular weight which counteract the biological actions of hepcidin on its receptor, the iron exporter ferroportin (Fpn), were identified on the basis of their ability to inhibit hepcidin-induced internalization of Fpn in living cells. For this purpose, a stable cell line (Madin-Darby canine kidney, MDCK) was produced which constitutively expresses human ferroportin fused recombinantly at its C terminus with a fluorescent reporter protein (HaloTag®, Promega Corp.). The internalization of Fpn was monitored by labelling these cells with fluorescent ligands (HaloTag®-TMR, tetramethylrhodamine) which join covalently on to the HaloTag reporter gene fused with the Fpn. […] Optimized image analysis algorithms were used to ascertain the cell surface and to quantify the corresponding membrane fluorescence associated with the Fpn-HaloTag fusion protein. This assay allows a quantitative image-based analysis in order to quickly evaluate compounds which can block hepcidin-induced internalization of Fpn. This assay is a direct in vitro pendant of the in vivo action mechanism proposed for medicament candidates and is therefore suitable as an initial assay with a high throughput for identifying compounds which counteract the action of hepcidin on its receptor ferroportin.
• 7,500 cells per well (MDCK-FPN-HaloTag) were transinoculated in 50 μl DMEM medium (Dulbeccos modified Eagle medium with 10% foetal bovine serum (FBS), which contained 1% penicillin, 1% streptomycin and 450 μg/ml of G-418) in microtitre plates with 384 wells, (384 Cell carrier plates, Perkin Elmer, cat. no. 6007430), followed by incubation overnight at 37° C./5% CO2. • The volume of the medium was reduced to 10 μl, and 10 μl of 5 μM HaloTag-TMR ligands (Promega, cat. no. G 8251) were added in DMEM medium in order to stain the Fpn-HaloTag fusion protein. • 15 min incubation at 37° C./5% CO2 • The HaloTag-TMR ligand was removed and the cells were washed with fresh DMEM medium and the volume was reduced to 20 μl of DMEM medium. • 3 μl per well of a solution of the test compound (dissolved DMSO) were added ([…]). • 7 μl of […] hepcidin (Peptides International, cat. no. PLP-4392-s, 100 μM stock solution diluted in water in DMEM medium) were added per well up to a final hepcidin concentration of 100 nM. • The cells were incubated overnight at 37° C./5% CO2. • The cells were fixed by adding paraformaldehyde (PFA, Electron Microscopy Sciences, cat. no. 15710-S) directly to the cells up to a final concentration of 4%, followed by incubation at room temperature for 15-20 minutes. • The PFA solution was removed and the cells were washed with PBS (phosphate-buffered saline solution), in each case 30 μl remaining in the plate. • 20 μl of Draq5 (Biostatus, cat. no. DR 51000) were added up to a final concentration of 2.5 μM in order to stain the cell nuclei, and the plates were sealed with a foil plate seal. • The plates were analysed with the Opera Plate Imager (Opera Confocal Plate Imager, Perkin Elmer) with 7 images per well; 440 ms exposure time per image, […] focal point height.

`Oc1c(C(c2ccccn2)N2CCN(c3ccccn3)CC2)ccc2cccnc12` (centres unmarked) [Example 37, 7-[Pyridin-2-yl-(4-pyridin-2-yl-piperazin-1-yl)-methyl]-quinolin-8-ol] and `Oc1c(C(c2ccc(Cl)cc2)N2CCOCC2)ccc2cccnc12` (centres unmarked) [Example 40, 7-[(4-Chloro-phenyl)-morpholin-4-yl-methyl]-quinolin-8-ol] cannot be ordered by pIC50: over 4.30 for the first, over 4.30 for the second.

Compared with `Oc1c(CN2CCOCC2)cc(CN2CCOCC2)c2cccnc12` [Example 38, 5,7-Bis-morpholin-4-ylmethyl-quinolin-8-ol], `Oc1c(C(c2cccs2)N2CCOCC2)cc(Cl)c2cccnc12` (centres unmarked) [Example 39, 5-Chloro-7-(morpholin-4-yl-thiophen-2-yl-methyl)-quinolin-8-ol] is higher in pIC50: under 4.00 for the first, over 4.30 for the second. The second is the more potent here.

`COc1ccc(C(c2ccc3cccnc3c2O)N2CCOCC2)cc1` (centres unmarked) [Example 41, 7-[(4-Methoxy-phenyl)-morpholin-4-yl-methyl]-quinolin-8-ol] showed a pIC50 of over 4.30.
